Like-named read-outs stand apart in the source and are kept apart here.
Columns and labels:
HBV = experiment: Anti-HBV activity on the hepatitis B virus mouse model (AAV-HBV); type: in vivo, C57BL/6 mice; conditions: for HBsAg content in the plasma of the mice: PO
Protocol: The AAV vector-mediated HBV infected mouse model is a fast and efficient HBV model. Using the high hepatotropism of the AAV vector, the recombinant adeno-associated type 8 virus carrying 1.3 copies of the HBV genome (rAAV8-1.3HBV) is injected into the tail vein of mice, which can efficiently introduce the carried 1.3 copy HBV genome into hepatocytes. Due to the characteristics of the AAV viral vector, the vector mediated by it can express for a long time. The AAV/HBV model can continuously replicate HBV DNA and express HBsAg and HBeAg in the liver of the mice.
The anti-HBV efficacy of the test compound in vivo was evaluated by determining the content of HBsAg in the serum of the mice after treatment with the test compound on AAV/HBV mouse mode.
C57BL/6 mice, 10% HP-f-CD as vehicle, reference compound TDF (Tenofovir), test compound, recombinant virus rAAVS-1.3HBV, main reagents of the experiment including QIAamp96 DNA kit and TaqMan® Universal PCR Master Mix, Hepatitis B Virus Surface Antigen Detection Kit, instruments including: centrifuge (Beckman Allegra X-15R), tissue grinder (QIAGEN-Tissue lyser II) and spectrophotometer (Thermo-NANODROP 1000).
a) All mice were orally administered on the 28th day after the virus injection, and the day was set as day 0. Submaxillary blood of all mice was collected for serum collection before administration. The mice were administered once a day for four weeks.
b) Submaxillary blood of all mice was collected for serum collection twice a week, the volume of the blood collected each time was approximately 100 μL.
c) On the 28th day, all mice were euthanized and the blood was collected from the heart for serum collection.
The content of HBsAg in the serum of the mice was determined by ELISA. The experimental procedure refers to the specification of HBsAg ELISA kit.
a) The anti-HBV activity of the test compound on AAV/HBV mice model was evaluated by determining the content of HBsAg in the plasma of the mice.

[1] = Single-dose pharmacokinetic study on mouse; type: in vivo, C57BL/6 mice
[2] = Microsomal metabolism stability, mouse; type: in vitro ADME; conditions: mouse liver microsomes 0.5 mg/mL, 1 μM, NADPH, 37° C.
Protocol: The microsomal metabolism stability of the test compound (Embodiment 6) in three species was determined. 1 μM test compound and microsomes (0.5 mg/mL) supplemented with NADPH regeneration system were incubated at 37° C. The positive controls were testosterone (3A4 substrate), propafenone (2D6 substrate) and diclofenac (2C9 substrate), respectively. The positive control and microsomes (0.5 mg/mL) supplemented with NADPH regeneration system were incubated at 37° C. Samples at different time points (0, 5, 10, 20, 30, and 60 minutes) were mixed directly with cold acetonitrile containing an internal standard to terminate the reaction. The compound and microsomes were incubated for 60 minutes without the NADPH regeneration system. One parallel was set at each time point (n=1). The samples were analyzed by LC/MS/MS. The concentration of the compound was indicated by the ratio of the peak area of the analyte to the peak area of the internal standard.

[3] = Plasma protein binding rate, SD rat plasma; type: in vitro ADME; conditions: plasma of SD rat, dialysis 4 hours at 37° C.
Protocol: The protein binding rate of Embodiment 6 in the plasma of human, CD-1 mouse and SD rat was determined, 796 μL of blank plasma was taken from human, CD-1 mice and SD rats, and 4 μL of test compound working solution (400 μM) or warfarin working solution (400 μM) was added to achieve a final concentration of the test compound and the warfarin in plasma samples of 2 μM. The samples were mixed thoroughly. The final concentration of organic phase DMSO was 0.5%, 50 μL of the test compound and warfarin plasma sample were transferred into sample receiving plates (three parallels), and a relative volume of corresponding blank plasma or buffer was immediately added, ensuring that the final volume of each sample well was 100 μL, and the volume ratio of plasma to dialysis buffer was 1:1. 400 μL of stop solution was added to these samples, which was used as a T0 sample for the determination of recovery and stability. […] The protein binding rate and the recovery rate were calculated by the formulas: % Protein unbinding rate (%)=100*Drug concentration through the dialysis membrane/drug concentration not through the dialysate: Protein binding rate (%)=100-% protein unbinding rate: % Recovery=100*(Drug concentration through the dialysis membrane+Drug concentration not through the dialysate)/Total drug concentration before undialysis. Protein binding rate and recovery rate were calculated.

HBV-DNA = experiment: HBV DNA content in HepG2.2.15 cells culture supernatant by real time-qPCR; type: cell-based; conditions: supernatant on the 8th day
Protocol: 2.1 Cell Line: HepG2.2.15 Cells
3.6 15 μL of the reaction mixture was added into each well of a 96-well PCR plate, followed by addition of 10 μL of sample DNA or HBV DNA standards into each well.
3.7 PCR reaction conditions: heating at 95° C. for 10 minutes, then denaturation at 95° C. for 15 seconds, extension at 60° C. for 1 minute, a total of 40 cycles.

With `COCCCOc1cc2c(cc1OC)-c1cc(=O)c(C(=O)O)cn1[C@H](C(C)(C)C)CO2` [Embodiment 6] the “effect on the content of HBsAg on the AAV/HBV mouse model (in words)” value (HBV; 3, 10, 30 mg/kg PO once a day for four weeks) was “significantly reduce”, the “HBsAg content in the plasma of the mice” value (HBV; day 4, 3 mg/kg) was 3.68 IU/mL and the “HBsAg content in the plasma of the mice” value (HBV; day 4, 10 mg/kg) was 3.56 IU/mL. The “HBsAg content in the plasma of the mice” value (HBV; day 4, 30 mg/kg) was 3.38 IU/mL, the “HBsAg content in the plasma of the mice” value (HBV; day 7, 3 mg/kg) was 3.70 IU/mL and the “HBsAg content in the plasma of the mice” value (HBV; day 7, 10 mg/kg) was 3.69 IU/mL. The “HBsAg content in the plasma of the mice” value (HBV; day 7, 30 mg/kg) was 3.44 IU/mL, the “HBsAg content in the plasma of the mice” value (HBV; day 11, 3 mg/kg) was 3.76 IU/mL and the “HBsAg content in the plasma of the mice” value (HBV; day 11, 10 mg/kg) was 3.92 IU/mL. For the same molecule, the “HBsAg content in the plasma of the mice” value (HBV; day 11, 30 mg/kg) was 3.64 IU/mL, the “HBsAg content in the plasma of the mice” value (HBV; day 14, 3 mg/kg) was 3.70 IU/mL and the “HBsAg content in the plasma of the mice” value (HBV; day 14, 10 mg/kg) was 3.61 IU/mL. For the same molecule, the “HBsAg content in the plasma of the mice” value (HBV; day 14, 30 mg/kg) was 3.40 IU/mL, the “HBsAg content in the plasma of the mice” value (HBV; day 18, 3 mg/kg) was 3.85 IU/mL and the “HBsAg content in the plasma of the mice” value (HBV; day 18, 10 mg/kg) was 3.90 IU/mL. For the same molecule, the “HBsAg content in the plasma of the mice” value (HBV; day 18, 30 mg/kg) was 3.55 IU/mL, the “HBsAg content in the plasma of the mice” value (HBV; day 21, 3 mg/kg) was 3.78 IU/mL and the “HBsAg content in the plasma of the mice” value (HBV; day 21, 10 mg/kg) was 3.75 IU/mL. For the same molecule, the “HBsAg content in the plasma of the mice” value (HBV; day 21, 30 mg/kg) was 3.46 IU/mL, the “HBsAg content in the plasma of the mice” value (HBV; day 25, 3 mg/kg) was 3.76 IU/mL and the “HBsAg content in the plasma of the mice” value (HBV; day 25, 10 mg/kg) was 3.83 IU/mL. The “HBsAg content in the plasma of the mice” value (HBV; day 25, 30 mg/kg) was 3.37 IU/mL, the “HBsAg content in the plasma of the mice” value (HBV; day 28, 3 mg/kg) was 3.96 IU/mL and the “HBsAg content in the plasma of the mice” value (HBV; day 28, 10 mg/kg) was 3.87 IU/mL. For the same molecule, the “HBsAg content in the plasma of the mice” value (HBV; day 28, 30 mg/kg) was 3.53 IU/mL, the “HBsAg content in the plasma of the mice” value (HBV; day −1, 3 mg/kg) was 4.54 IU/mL and the “HBsAg content in the plasma of the mice” value (HBV; day −1, 10 mg/kg) was 4.51 IU/mL. The “HBsAg content in the plasma of the mice” value (HBV; day −1, 30 mg/kg) was 4.48 IU/mL, the “tolerance of the mice during the course of treatment” value (HBV; once a day for four weeks) was “good tolerance” and the “changes of the body weight of the mice” value (HBV; once a day for four weeks, FIG. 3) was “better than RG7834”. The Apparent distribution volume ([1]; IV: 1 mg/kg PO: 2 mg/kg) was 5.79 L/kg, the Bioavailability ([1]; IV: 1 mg/kg PO: 2 mg/kg) was 91.6% and the Highest concentration ([1]; IV: 1 mg/kg PO: 2 mg/kg) was 1055 nM. It also gave a half-life ([1]; male, C57BL/6, plasma, IV: 1 mg/kg PO: 2 mg/kg) of 2.46 h, a clearance ([1]; male, C57BL/6, plasma, IV: 1 mg/kg PO: 2 mg/kg, read-out: Clearance rate) of 75 mL/min/kg and an AUC(0-t) ([1]; male, C57BL/6, plasma, IV: 1 mg/kg, read-out: AUC0-last (Intravenous injection)) of 0.502 µM·h. The AUC(0-t) ([1]; male, C57BL/6, plasma, PO: 2 mg/kg, read-out: AUC0-last (Oral)) was 0.876 µM·h, the “remaining ratio at T=60 min” value [2] was 102.5% and the fraction unbound at 4 h, 2 μM [3] was 0.406. It also gave an EC50 (HBV-DNA) of 2.55 nM.
